This is an account of results in patent US4006226A, “Anticonvulsant diphenylsilanes” (priority 1976, dated 1977).

Data set [1] concerns maximal electroshock. The data set can be described thus: Modified maximal electroshock test (100 Hz, 0.1 sec., 150 volt) of hydrolyzable silanes, oral. Type of data set: in vivo, male Carworth mice. To be noted: for ED50: Mus musculus, read-out: Maximal Electroshock ED50 (95% C.I.); for ED50 / Maximal Electroshock ED50 (95% C.I.): sesame oil; for anticonvulsant activity (in words): maximal electroshock. On the procedure:
(§1) The modified (100 Hz, 0.1 sec., 150 volt) maximal electroshock test was used to determine the anticonvulsant activity of several hydrolyzable silanes. Male Carworth mice were used as the test animal. All of the compounds were administered orally in a sesame oil carrier. […] The effective amount (ED50) for the compounds at three different time intervals after dosing was determined as previously described.
For orientation: The maximal electroshock test induces tonic seizures with an electrical stimulus.

Data set [2] in a line: LD50, single dose in sesame oil, 14 days observation. To be noted: mouse, in vivo, po, dead after 14 days. Further details: species or system male Carworth mice. As to the method:
as §1
The LD50 of certain silanes was determined by administering a single dose of the silane in sesame oil to groups of the male mice.

Data set [3] deals with tonic extension of the hind limbs. The data set can be described thus: Electroshock test (60 Hz A.C., 0.2 second, 50 milliamp), i.p. dosing. In kind it is in vivo, mice (female Swiss Webster). As to the method:
The electroshock test procedure was used to determine anticonvulsant activity of diphenylsilanediol. Adult female mice (Swiss Webster strain) were utilized as test animals. […] Seizure protection was scored as inhibition of tonic extension. Groups of mice (six/group) were dosed interperitonially with varying amounts of diphenylsilanediol in a 0.5% methylcellulose solution in distilled water. The dosages ranged from 10 to 100 mg./kg. and the electroshock was applied 30 minutes after dosing.
(§2) (ED99) to be 30 minutes after dosing, the half time of the effect to be about four hours, with some measurable anticonvulsant activity being noted up to 10 hours. The toxicity (LD50) of this silane solution (as freshly prepared) in mice, administered i.p., was determined to be 2500 mg./kg.

Data set [4] is described as follows: Acute toxicity (LD50), i.p. To be noted: mouse, in vivo, ip, mice, freshly prepared solution. On the procedure:
as §2

Data set [5] deals with maximal electroshock. Briefly: Modified maximal electroshock (100 Hz, 0.1 second, 150 volts), intravenous dosing. In kind it is in vivo, mice. On the procedure: (§3) Mice were also dosed with a similar solution of diphenylsilanediol but by intravenous administration. The ED50 was determined to be 10 mg./kg. with a 5 minute peak time by a modified maximal electroshock technique in which stimulus was delivered at 100 Hz for 0.1 second at 150 volts.

The subject of data set [6] is maximal electroshock. The data set can be described thus: Modified maximal electroshock, oral dosing via gastric intubation in sesame oil. In kind it is in vivo, mice. To be noted: Mus musculus. On the procedure: as §3
Oral dosing of mice via gastric intubation with the diphenylsilanediol suspended in sesame oil solution was also performed. Maximal electroshock (modified as described above) was again used to determine the amount necessary to provide an effective dose (ED50) at various time intervals after dosing.

In data set [7] the test system is Pentylenetetrazol-induced clonic seizures. The data set can be described thus: Pentylenetetrazol-induced seizure test (Swinyard's method). Type of data set: in vivo, mice (female Swiss Webster). To be noted: Mus musculus, ip, 0.5 h; i.p., 30 minutes before pentylenetetrazol; absence of clonic seizures. As to the method: (§4) Diphenylsilanediol was also tested to determine its effectiveness against chemically-induced seizures. Pentylenetetrazol and strychnine were the convulsant compounds used. Pentylenetetrazol testing was performed in accordance with Swinyard's method as described in J. Am. Pharm. Assoc. 38:201, 1949, while styrchnine tests were made by the method of Everett and Richards as described in J. Pharm. Exp. Ther. 81:402, 1944.
(§5) The silane (in 0.5% aqueous methylcellulose) was administered i.p. to groups of 6 mice (female Swiss Webster) at doses of 10, 30, 100 and 300 mg./kg. The silane solution was administered 30 minutes before injection with one of the convulsant drugs. The end point for scoring effectiveness was the absence of clonic seizures during the 30 minute period subsequent to administration of the convulsant -- this same criterion was utilized in conducting the strychnine tests. In both tests, effective amounts (ED50) of the silane were equivalent with the pentylenetetrazol-induced convulsion requiring 58 mg./kg. and the styrchnine tests showing 60 mg./kg. as the ED50.

The subject of data set [8] is strychnine-induced seizures. The data set can be described thus: Strychnine-induced seizure test (method of Everett and Richards). To be noted: Mus musculus, ip, 0.5 h. Type of data set: in vivo, mice (female Swiss Webster). As to the method:
as §4, §5

Data set [9] concerns idiopathic epilepsy, grand mal seizures of the clonic type. The data set can be described thus: Control of seizures in a dog with idiopathic epilepsy. Type of data set: in vivo, dog (German Shepard). As to the method:
A young adult dog (German Shepard) was diagnosed as having idiopathic epilepsy after having grand mal seizures of the clonic type.
After five days of dosing, the same amount was administered orally in 250 mg. capsules for a period of 10 days.

Setting [10] is: after cessation of 10 mg./kg. oral dose twice daily.
The mark [11] stands for this setting: after discontinuation of 500 mg. regimen.

With `CC(=O)O[Si](OC(C)=O)(c1ccccc1)c1ccccc1`, the ED50 was determined as 43 mg/kg with maximal electroshock [1] (2 hrs. after dosing), 11 mg/kg with maximal electroshock [1] (4 hrs. after dosing) and 50 mg/kg with maximal electroshock [1] (6 hrs. after dosing).

On to `CN[Si](NC)(c1ccccc1)c1ccccc1`, for which the median effective dose (ED50) in the data set with maximal electroshock [1] (2 hrs. after dosing) came to 68 mg/kg; with maximal electroshock [1] (4 hrs. after dosing) it was 70 mg/kg; with maximal electroshock [1] (6 hrs. after dosing), 153 mg/kg.

Consider `CCO[SiH](c1ccccc1)c1ccccc1`, for which the figures for the 50% effective dose (ED50) in the data set with maximal electroshock [1] (2 hrs. after dosing), with maximal electroshock [1] (4 hrs. after dosing) and in the data set on maximal electroshock [1] (6 hrs. after dosing) were 22 mg/kg, 21 mg/kg and 46 mg/kg, respectively.

Take `N[Si](N)(c1ccccc1)c1ccccc1` [.phi.2 Si(NH2)2]: the figures for the ED50 in the data set with maximal electroshock [1] (2 hrs. after dosing), with maximal electroshock [1] (4 hrs. after dosing) and with maximal electroshock [1] (6 hrs. after dosing) were 56 mg/kg, 68 mg/kg and 100 mg/kg, respectively.

Turning to `CCO[Si](OCC)(c1ccccc1)c1ccccc1` [.phi.2 Si(OC2 H5)2], the median effective dose (ED50) with maximal electroshock [1] (2 hrs. after dosing) was 37 mg/kg; in the data set on maximal electroshock [1] (4 hrs. after dosing) it was 50 mg/kg; in the data set with maximal electroshock [1] (6 hrs. after dosing), 22 mg/kg. In data set [2], this compound yielded a 50% lethal dose (LD50) at 336 h of 1720 mg/kg.

As to `CO[Si](OC)(c1ccccc1)c1ccccc1` [.phi.2 Si(OCH3)2], the 50% effective dose (ED50) was 39 mg/kg with maximal electroshock [1] (2 hrs. after dosing), 26 mg/kg in the data set on maximal electroshock [1] (4 hrs. after dosing) and 52 mg/kg in the data set with maximal electroshock [1] (6 hrs. after dosing). Further, the LD50 at 336 h in data set [2] is 1060 mg/kg.

With `O[Si](O)(c1ccccc1)c1ccccc1` [.phi.2 Si(ONa)2], the 50% effective dose (ED50) turned out to be 37 mg/kg in the data set on maximal electroshock [1] (2 hrs. after dosing), 61 mg/kg in the data set with maximal electroshock [1] (4 hrs. after dosing) and 90 mg/kg in the data set with maximal electroshock [1] (6 hrs. after dosing).

`CC(C)O[Si](OC(C)C)(c1ccccc1)c1ccccc1` [.phi.2 Si(Oi-C3 H7)2]: the ED50 in the data set with maximal electroshock [1] (4 hrs. after dosing) was 99 mg/kg; in the data set with maximal electroshock [1] (6 hrs. after dosing) it was 66 mg/kg. Further, in the data set on maximal electroshock [1] (2 hrs. after dosing), the “Maximal Electroshock ED50 (95% C.I.)” value is recorded as “no protection”. This compound also registered an LD50 at 336 h in [2] of 990 mg/kg.

Take `CCCO[Si](OCCC)(c1ccccc1)c1ccccc1` [.phi.2 Si(On-C3 H7)2]: the ED50 with maximal electroshock [1] (4 hrs. after dosing) was 89 mg/kg; in the data set on maximal electroshock [1] (6 hrs. after dosing) it was 32 mg/kg. In the data set with maximal electroshock [1] (2 hrs. after dosing), the “Maximal Electroshock ED50 (95% C.I.)” value is listed as “no protection”. The LD50 at 336 h in data set [2] was found to be 1000 mg/kg.

Consider `CCCCO[Si](OCCCC)(c1ccccc1)c1ccccc1` [.phi.2 Si(On-C4 H9)2, diphenyl-di-n-butoxysilane, reference compound], for which the ED50 in the data set with maximal electroshock [1] (4 hrs. after dosing) and in the data set with maximal electroshock [1] (6 hrs. after dosing) was 1000 mg/kg each time. The “anticonvulsant activity (in words)” value in the data set with maximal electroshock [1] is reported as “no observed activity”. Also, in the data set with maximal electroshock [1] (2 hrs. after dosing), the “Maximal Electroshock ED50 (95% C.I.)” value was “no protection”. Moreover, the 50% lethal dose (LD50) at 336 h in data set [2] was 5300 mg/kg.

For `CCCCS[Si](SCCCC)(c1ccccc1)c1ccccc1` [.phi.2 Si(SC4 H9)2], the median effective dose (ED50) with maximal electroshock [1] (2 hrs. after dosing) came out at 290 mg/kg; in the data set with maximal electroshock [1] (4 hrs. after dosing), 65 mg/kg; with maximal electroshock [1] (6 hrs. after dosing), 65 mg/kg.

Regarding `c1ccc([SiH2]c2ccccc2)cc1` [.phi.2 SiH2], the median effective dose (ED50) was found to be 28 mg/kg in the data set on maximal electroshock [1] (2 hrs. after dosing), 25 mg/kg in the data set on maximal electroshock [1] (4 hrs. after dosing) and 28 mg/kg with maximal electroshock [1] (6 hrs. after dosing). The compound further had an LD50 at 336 h in data set [2] of 924 mg/kg.

For `CN(C)[Si](c1ccccc1)(c1ccccc1)N(C)C` [.phi.2 Si[N(CH3)2]2], the ED50 was determined as 50 mg/kg in the data set with maximal electroshock [1] (2 hrs. after dosing), 50 mg/kg in the data set on maximal electroshock [1] (4 hrs. after dosing) and 56 mg/kg in the data set with maximal electroshock [1] (6 hrs. after dosing).

For `CCN(CC)CCO[Si](OCCN(CC)CC)(c1ccccc1)c1ccccc1` [.phi.2 Si[OCH2 CH2 N(C2 H5)2]2], the median effective dose (ED50) in the data set on maximal electroshock [1] (2 hrs. after dosing) was 52 mg/kg; in the data set with maximal electroshock [1] (4 hrs. after dosing), 84 mg/kg; in the data set on maximal electroshock [1] (6 hrs. after dosing), 168 mg/kg.

For the compound `O[Si](O)(c1ccccc1)c1ccccc1` [diphenylsilanediol], in data set [3] (25 mg./kg. (ED99)), the “half time of the effect” value was “about four”. The “peak time of the anticonvulsant effect” value in data set [3] (25 mg./kg. (ED99)) worked out at 30 min. In data set [3] (25 mg./kg. (ED99)), the “some measurable anticonvulsant activity noted up to” value is “up to 10 hours”. For the same compound, the ED99 in [3] (Mus musculus, ip, 0.5 h) is 25 mg/kg. The ED50 in data set [3] (Mus musculus, ip, 0.5 h, 0.5% methylcellulose, electroshock 30 minutes after dosing, read-out: effective dose to prevent convulsions in half the animals (ED50)) is 20 mg/kg; in the data set with maximal electroshock [5] (Mus musculus, 5 min), 10 mg/kg; in the data set with maximal electroshock [6] (2 hrs. after dosing), 25 mg/kg; in the data set with maximal electroshock [6] (4 hrs. after dosing) it was 37 mg/kg; with maximal electroshock [6] (6 hrs. after dosing), 60 mg/kg; in data set [7], 58 mg/kg. This compound had a 50% effective dose (ED50) in [8] of 60 mg/kg. This compound yielded a median lethal dose (LD50) in [4] of 2500 mg/kg. In the data set with maximal electroshock [5], this compound yielded a peak time of 5 min. Also, the control of seizures result in [9] (500 mg. intramuscularly twice per day) is reported as “effective in controlling seizures”. For the same compound, in data set [9] (500 mg. twice per day, 5 days intramuscular then 10 days oral (250 mg. capsules)), the “seizures during 15 day period” value is reported as “did not experience seizures”. The compound also showed a first seizure postdose in data set [9] (setting [10]) of 30 h. For the same compound, the “interval of seizures after cessation” value in [9] (setting [10]) is given as “three”. For the same compound, in [9] (setting [11]), the “first seizure after the last dose” value was found to be 39 h. Also, the “interval of seizures after discontinuation” value in data set [9] (setting [11]) was “about four”. Moreover, the elimination of seizures result in data set [9] (one-half the previous dosage, 10 mg./kg. orally twice daily, 10 days) is given as “effective in eliminating seizures”.

Regarding `O[Si](O[Si](O)(c1ccccc1)c1ccccc1)(c1ccccc1)c1ccccc1` [reference compound], the median effective dose (ED50) in the data set on maximal electroshock [1] (2 hrs. after dosing), with maximal electroshock [1] (4 hrs. after dosing) and in the data set with maximal electroshock [1] (6 hrs. after dosing) was 1000 mg/kg throughout. Moreover, the “anticonvulsant activity (in words)” value in the data set on maximal electroshock [1] is “no anticonvulsant activity”.

As usually defined, the ED50 is the midpoint of the dose-response relation. For orientation: LD50 means the dose expected to kill half of the subjects tested. The low end stands for greater toxicity, the high end for lower toxicity.
